Experimental data as given in US9012431B2, “Boron-containing small molecules as anti-inflammatory agents” (Anacor Pharmaceuticals, Inc., priority 2008, dated 2015).

Assays:
[1] = tested on: IL-2; experiment: Cytokine assay, IL-2 release from PBMC; format: cell-based; conditions: human PBMC, 20 ug/mL PHA, supernatant at 24 hours
Method: (§1) The ability of the compounds described herein to inhibit pro-inflammatory cytokines or phsophodiesterases were tested.
(§2) Frozen human peripheral blood mononucleocytes (PBMC) were thawed and centrifuged. Cryopreservation media was aspirated off of the cell pellet, and the cells were resuspended in fresh culture media (CM) comprising RPMI 1640 and 10% FBS in 96 well plates. Test article was dissolved in DMSO to form a 10 mM sample (DMSO, 100%). The 10 mM samples were diluted to 100 μM in CM (DMSO, 1%), then further diluted to 10, 1, 0.1, 0.01 μM in 200 μL of CM (n=3). […] IL-23 was assayed using a commercial ELISA kit (R&D Systems).

[2] = tested on: IFN-γ; experiment: Cytokine assay, IFN-γ release from PBMC; format: cell-based; conditions: human PBMC, 20 ug/mL PHA, supernatant at 24 hours
Method: as §1, §2

[3] = tested on: IL-5; experiment: Cytokine assay, IL-5 release from PBMC; format: cell-based; conditions: human PBMC, 20 ug/mL PHA, supernatant at 48 hours
Method: as §1, §2

[4] = tested on: TNF-α; experiment: Cytokine assay, TNF-α release from PBMC; format: cell-based; conditions: 1 μg/mL LPS, supernatant at 24 hours
Method: as §1, §2

[5] = tested on: IL-10; experiment: Cytokine assay, IL-10 release from PBMC; format: cell-based; conditions: human PBMC, 20 ug/mL PHA, supernatant at 48 hours
Method: as §1, §2

[6] = tested on: T1, PDE4 partially purified from human U-937 myeloid leukemia cells; experiment: PDE4 Assay (enzyme from U-937 cells, [3H]cAMP); format: biochemical; conditions: PDE4 from U-937 cells, Tris buffer pH 7.5, 20 minutes at 25° C.
T1 construct: PDE4 partially purified from human U-937 myeloid leukemia cells was used
Method: Test article and/or vehicle was incubated with 0.2 mg enzyme and 1 mM cAMP containing 0.01 mM [3H]cAMP in Tris buffer pH 7.5 for 20 minutes at 25° C. The reaction was terminated by boiling for 2 minutes and the resulting AMP is converted to adenosine by addition of 10 mg/ml snake venom nucleotidase and further incubation at 37° C. for 10 minutes. Unhydrolyzed cAMP is bound to AG1-X2 resin, and remaining [3H]Adenosine in the aqueous phase is quantitated by scintillation counting.

| SMILES | IC50 [1] | IC50 [2] | IC50 [3] | IC50 ([4]; Homo sapiens, PBMC, 24 h) | IC50 [5] | IC50 [6] | IC50 ([4]; human PBMC) |
| --- | --- | --- | --- | --- | --- | --- | --- |
| CCN(CC)C(=O)COc1cc(C#N)ccc1Oc1ccc2c(c1)COB2O [D28, 2-(5-cyano-2-(1-hydroxy-1,3-dihydrobenzo[c][1,2]oxaborol-5-yloxy)phenoxy)-N,N-diethylacetamide] | < 1 µM | < 1 µM | < 1 µM | < 1 µM | 1 to 4 µM | < 1 µM |  |
| CC(C)(C)OC(=O)COc1cc(C#N)ccc1Oc1ccc2c(c1)COB2O [D30, 5-[4-Cyano-2-(tert-butoxycarbonylmethoxy)phenoxy], 3-dihydro-1-hydroxy-2,1-benzoxaborole] | < 1 µM | < 1 µM | < 1 µM | < 1 µM | < 1 µM | < 1 µM |  |
| CCOC(=O)COc1cc(Oc2ccc3c(c2)COB3O)ccc1C#N [D38, [2-Cyano-5-(1-hydroxy-1,3-dihydro-benzo[c][1,2]oxaborol-5-yloxy)-phenoxy]-acetic acid ethyl ester] | < 1 µM | < 1 µM | < 1 µM | < 1 µM | 1 to 4 µM | < 1 µM |  |
| CC(C)(C)OC(=O)COc1cc(Oc2ccc3c(c2)COB3O)ccc1C#N [D40, [2-Cyano-5-(1-hydroxy-1,3-dihydro-benzo[c][1,2]oxaborol-5-yloxy)-phenoxy]-acetic acid tert-butyl ester] | < 1 µM | < 1 µM | < 1 µM | < 1 µM | < 1 µM | < 1 µM |  |
| N#Cc1ccc(Oc2ccc3c(c2)COB3O)cc1OCC(=O)N1CCOCC1 [D41, 4-(1-Hydroxy-1,3-dihydro-benzo[c][1,2]oxaborol-5-yloxy)-2-(2-morpholin-4-yl-2-oxo-ethoxy)-benzonitrile] | < 1 µM | < 1 µM | 1 to 4 µM | 1 to 4 µM | 1 to 4 µM | < 1 µM |  |
| COc1ccc(C#N)c(Oc2ccc3c(c2)COB3O)n1 [D47, 2-(1-Hydroxy-1,3-dihydro-benzo[c][1,2]oxaborol-5-yloxy)-6-methoxy-nicotinonitrile] | < 1 µM | < 1 µM | < 1 µM | < 1 µM | 1 to 4 µM | < 1 µM |  |
| CCOC(=O)c1ccc(Oc2ccc3c(c2)COB3O)c(F)c1 [D51, 5-(2-Fluoro-4-ethoxycarbonylphenoxy)-1-hydroxy-2,1-benzoxaborole] | 1 to 4 µM | 1 to 4 µM | 4 to 10 µM | 1 to 4 µM | 1 to 4 µM | < 1 µM |  |
| COC(=O)c1cc(F)c(Oc2ccc3c(c2)COB3O)c(F)c1 [D52, 5-(2,6-Difluoro-4-methoxycarbonylphenoxy)-1-hydroxy-2,1-benzoxaborole] | 4 to 10 µM | 4 to 10 µM | > 10 µM | > 10 µM | > 10 µM | 1 to 4 µM |  |
| CCOC(=O)c1cc(F)c(Oc2ccc3c(c2)COB3O)cc1Cl [D53, 5-(5-Chloro-2-fluoro-4-ethoxycarbonylphenoxy)-1-hydroxy-2,1-benzoxaborole] | < 1 µM | < 1 µM | 1 to 4 µM | < 1 µM | 1 to 4 µM | < 1 µM |  |
| CCOC(=O)c1ccc(Oc2ccc3c(c2)COB3O)c(C(F)(F)F)c1 [D54, 5-(4-Eethoxycarbonyl-2-trifluoromethylphenoxy)-1-hydroxy-2,1-benzoxaborole] | < 1 µM | < 1 µM | 1 to 4 µM | < 1 µM | < 1 µM | < 1 µM |  |
| CC(C)OC(=O)c1ccc(Oc2ccc3c(c2)COB3O)c(F)c1 [D55, 5-(2-Fluoro-4-isopropyloxycarbonylphenoxy)-1-hydroxy-2,1-benzoxaborole] | < 1 µM | < 1 µM | 1 to 4 µM | 4 to 10 µM | 4 to 10 µM | < 1 µM |  |
| CCOC(=O)c1cc(F)c(Oc2ccc3c(c2)COB3O)c(F)c1 [D56, 5-(2,6-Difluoro-4-ethoxycarbonylphenoxy)-1-hydroxy-2,1-benzoxaborole] | 4 to 10 µM | > 10 µM | > 10 µM | > 10 µM | > 10 µM | 1 to 4 µM |  |
| CCOC(=O)c1ccc(Oc2ccc3c(c2)COB3O)cc1Cl [D57, 5-(3-Chloro-4-ethoxycarbonylphenoxy)-1-hydroxy-2,1-benzoxaborole] | < 1 µM | 1 to 4 µM | < 1 µM | 4 to 10 µM | > 10 µM | < 1 µM |  |
| CCOC(=O)c1cc(Cl)c(Oc2ccc3c(c2)COB3O)cc1F [D58, 5-(2-Chloro-5-fluoro-4-ethoxycarbonylphenoxy)-1-hydroxy-2,1-benzoxaborole] | < 1 µM | < 1 µM | < 1 µM | 1 to 4 µM | > 10 µM | < 1 µM |  |
| CCN(CC)C(=O)c1ccc(Oc2ccc3c(c2)COB3O)nc1 [D62, N,N-diethyl-6-(1-hydroxy-1,3-dihydrobenzo[c][1,2]-5-yloxy) nicotinamide] | < 1 µM | < 1 µM | 1 to 4 µM | < 1 µM | 1 to 4 µM | 1 to 4 µM |  |
| CCCOC(=O)c1ccc(Oc2ccc3c(c2)COB3O)nc1 [D66, n-Propyl 6-(1-hydroxy-1,3-dihydrobenzo[c][1,2]oxaborol-5-yloxy)nicotinate] | < 1 µM | < 1 µM | < 1 µM | < 1 µM | < 1 µM | < 1 µM |  |
| COC(=O)c1ccc(Oc2ccc3c(c2)COB3O)cc1 [D71, 4-(1-Hydroxy-1,3-dihydro-benzo[c][1,2]oxaborol-5-yloxy)-benzoic acid methyl ester] | 1 to 4 µM | 1 to 4 µM | 4 to 10 µM | 1 to 4 µM | > 10 µM | < 1 µM |  |
| CCOC(=O)c1ccc(Oc2ccc3c(c2)COB3O)cc1 [D72, 4-(1-Hydroxy-1,3-dihydro-benzo[c][1,2]oxaborol-5-yloxy)-benzoic acid ethyl ester] | 1 to 4 µM | 1 to 4 µM | 4 to 10 µM | 1 to 4 µM | > 10 µM | < 1 µM |  |
| CC(C)OC(=O)c1ccc(Oc2ccc3c(c2)COB3O)cc1 [D74, 4-(1-Hydroxy-1,3-dihydro-benzo[c][1,2]oxaborol-5-yloxy)-benzoic acid isopropyl ester] | < 1 µM | < 1 µM | 1 to 4 µM | 1 to 4 µM | 1 to 4 µM | < 1 µM |  |
| O=C(NCc1ccccc1)c1ccc(Oc2ccc3c(c2)COB3O)cc1 [D76, N-Benzyl-4-(1-hydroxy-1,3-dihydro-benzo[c][1,2]oxaborol-5-yloxy)-benzamide] | < 1 µM | 1 to 4 µM | 4 to 10 µM | 1 to 4 µM | 1 to 4 µM | < 1 µM |  |
| O=C(NCc1ccccn1)c1ccc(Oc2ccc3c(c2)COB3O)cc1 [D78, 4-(1-Hydroxy-1,3-dihydro-benzo[c][1,2]oxaborol-5-yloxy)-N-pyridin-2-ylmethyl-benzamide] | 1 to 4 µM | 1 to 4 µM | 1 to 4 µM | 1 to 4 µM | 1 to 4 µM | < 1 µM |  |
| N#Cc1ccc(Oc2ccc3c(c2)COB3O)nc1 [D82, 6-(1-hydroxy-1,3-dihydrobenzo[c][1,2]oxaborol-5-yloxy)nicotinonitrile] | < 1 µM | < 1 µM | 1 to 4 µM |  | < 1 µM | < 1 µM | < 1 µM |
| N#Cc1ccc(Oc2ccc3c(c2)COB3O)c(F)c1 [D84, 3-fluoro-4-(1-hydroxy-1,3-dihydrobenzo[c][1,2]oxaborol-5-yloxy)benzonitrile] | 1 to 4 µM | 4 to 10 µM | 4 to 10 µM | 1 to 4 µM | 1 to 4 µM | < 1 µM |  |
| Cc1cc(C#N)ccc1Oc1ccc2c(c1)COB2O [D85, 3-methyl-4-(1-hydroxy-1,3-dihydrobenzo[c][1,2]oxaborol-5-yloxy)benzonitrile] | < 1 µM | < 1 µM | < 1 µM | < 1 µM | 1 to 4 µM | < 1 µM |  |
| COc1ccc(Oc2ccc3c(c2)COB3O)cc1OC [D94, 5-(3,4-dimethoxyphenoxy)benzo[c][1,2]oxaborol-1 (3H)-ol] | 1 to 4 µM | 1 to 4 µM | 1 to 4 µM | 1 to 4 µM | > 10 µM | < 1 µM |  |
| CS(=O)(=O)c1ccc(Oc2ccc3c(c2)COB3O)cc1 [D103, 5-(4-(methylsulfonyl)phenoxy)benzo[c][1,2]oxaborol-1 (3H)-ol] | < 1 µM | < 1 µM | < 1 µM | 1 to 4 µM | 1 to 4 µM | 1 to 4 µM |  |
